Experimental data published in publication PMC10979105, “A simple method to resolve rate constants when the binding mechanism obeys induced fit or conformational selection” (The Journal of Biological Chemistry, 2024).
“And” between values parts separate entries of the source, which are not always exact repeats. Identical values can stand only once. Like-named read-outs stand apart in the source and are kept apart here.

Experiments:
[1] = system: thrombin mutant S195A; experiment: Rapid kinetics (stopped-flow) of FPR binding to thrombin
Excerpt: An important validation of the method is offered by application to a case where all rate constants have been determined from analysis of the two relaxations (Equations 3 and 4). In this case, one can assume no knowledge of the fast relaxation and consider only the slow relaxation and equilibrium titrations. We illustrate this point using FPR binding to the thrombin mutant S195A, inactivated at the catalytic S195 to prevent hydrolysis ([30]). Two relaxations were reported for this case, along with equilibrium titrations (Fig. 3, A and B). Analysis of the slow relaxation α2(x) yields α(0) = 0.60 ± 0.06 s^−1, α(∞) = 17 ± 2 s^−1, xm = 4.3 ± 0.4 μM, and α(xm) = 8.8 ± 0.9 s^−1 (Fig. 3A and Table 2). […] Interpretation of the binding mechanism in terms of CS gives k12 = 17 ± 2 s^−1 and koff = 0.60 ± 0.06 s^−1. Application of Equation 11 yields kon = 2.4 ± 0.2 μM^−1s^−1 and Equation 9 gives αˆ(0)=k12+k21 = 19 ± 2 s^−1 from which a value of k21 = 2.0 ± 0.2 s^−1 can be obtained (Table 2). These values are in excellent agreement with the ones reported originally from analysis of the two independent relaxations (Table 2) ([30]). When used in Equation 3 to predict the dependence of the fast relaxation α1(x) on [FPR], the curve (discontinuous line) deviates little from experimental data (Fig. 3A, top portion of the panel). Values derived from analysis of the two relaxations are obviously more rigorous and should be preferred when available, but the accuracy of values obtained by application of the method based on Equation 11 is noteworthy. The discrepancies in Table 2 between values of k21 for CS or koff and k32 for IF are small and the fast relaxation ( α1 in Fig. 3A) predicted from knowledge of a single, saturable relaxation ( α2 in Fig. 3A), and equilibrium binding measurements (Fig. 3B) is in excellent agreement with experimental data.
Figure 3 Binding of FPR to thrombin.A, rapid kinetics of FPR binding to thrombin showing the fast ( α1 ) and slow ( α2 ) relaxations defining a mechanism of binding consistent with IF or CS (see also Fig. 1A). Continuous lines depict Equations 3 and 4 in the original report ([30]) with best-fit parameter values of Equation 1 or Equation 2 listed in Table 2. […] The discontinuous line for the slow relaxation was drawn with the empirical expression [α(0)xm+α(∞)x]/(xm+x) , where x = [FPR], with best-fit parameters listed in Table 2. The discontinuous line for the fast relaxation was drawn using Equation 3 with the four independent rate constants obtained from application of Equation 11 (Table 2). The predicted fast relaxation (discontinuous line) approximates quite well the actual experimental data and lends confidence to the validity of the method. B, fractional saturation of FPR binding to thrombin. […] This value, together with the parameters derived from analysis of the slow relaxation in panel A, allows for derivation of the value of kon from Equation 11. The four independent rate constants derived from application of the method compare well with the values determined from application of Equations 3 and 4 in the original report ([30]). Data in panels A and B were taken from ([30]) and were obtained under the following experimental conditions: 400 mM ChCl, 50 mM Tris, 0.1% PEG8000, pH 8, at 15 °C. CS, conformational selection; FPR, H-D-Phe-Pro-Arg-p-nitroanilide; IF, induced fit.
(§1) The data analyzed in this study, that is, FPR binding to prethrombin-2, prothrombin, and thrombin (Figs. 2, A and B and 3, A and B) were taken from ([30]) without modification. The methodology used to produce the recombinant proteins, measure FPR binding by stopped-flow or equilibrium titrations is reported in ([30]) and references therein. Values of the slow relaxation α(x) (Fig. 1, A and B, 2A and 3A) are measured by stopped-slow as a function of the ligand concentration and derived from fit of the time evolution of the interaction according to the expression ([1])(12) A(x,t)=A0(x)+A1(x)exp{−α(x)t}

[2] = target: prothrombin; parameters: method as in PMID 29511224; conditions: fluorescence titration at equilibrium; 400 mM ChCl, 50 mM Tris, 0.1% PEG8000, pH 8, 15 °C; read-out: Kd,app; cited from earlier work
[3] = target: prethrombin-2 (S195A mutant); parameters: method as in PMID 29511224; conditions: fluorescence titration at equilibrium; 400 mM ChCl, 50 mM Tris, 0.1% PEG8000, pH 8, 15 °C; read-out: Kd,app; cited from earlier work
[4] = system: prethrombin-2 (S195A mutant); experiment: Rapid kinetics (stopped-flow) of FPR binding to prethrombin-2
Excerpt: Rapid kinetics of FPR binding to thrombin resolved the two independent relaxations (Equations 3 and 4) for CS and the four independent rate constants. On the other hand, similar measurements for prethrombin-2 produced only a saturable relaxation increasing with [FPR] (Fig. 2A) ([30]), thereby preventing resolution of the four independent constants and a full comparison with the mature protease thrombin. This situation provides an ideal test for application of the method based on Equation 11. The saturable relaxation for FPR binding to prethrombin-2 increases from α(0) = […] to α(∞) = 150 ± 20 s^−1, with a midpoint xm = 200 ± 20 μM and α(xm) = 88 ± 9 s^−1 (Fig. 2A and Table 2). […] Interpretation of the saturable relaxation in terms of CS gives k12 = 150 ± 20 s^−1 and koff = 25 ± 3 s^−1. Application of Equation 11 then yields kon = 4.0 ± 0.4 μM^−1s^−1 and Equation 9 gives αˆ(0)=k12+k21 = 890 ± 90 s^−1, so k21 = 740 ± 70 s^−1 (Table 2). The value of kon is almost identical to that reported for the mature protease thrombin (2.6 ± 0.3 μM^−1s^−1), whilst the value of koff is 40-fold higher (25 ± 3 s^−1 versus 0.60 ± 0.06 s^−1) ([30]). […] The conclusion is independent of whether FPR binding to prethrombin-2 is interpreted according to CS or IF. Application of the conversion formulas in Table 1 gives rate constants for IF equal to kon = 4.0 ± 0.4 μM^−1s^−1, koff = 765 ± 80 s^−1, k23 = 120 ± 10 s^−1, and k32 = 29 ± 3 s^−1 (Table 2), thereby making the contribution of a decreased rate of dissociation in the protease even more evident. Importantly, the two sets of rate constants for IF and CS yield the same value for Kd,app (Table 2), as shown by application of Equation 10 and the conversion formulas in Table 1. The importance of koff in setting the difference between ligand binding to prethrombin-2 and thrombin was anticipated by previous studies ([30]). The method based on Equation 11 provides a quantitative estimate of the difference and adds rigor to previous conclusions.
(§2) Figure 2 Binding of FPR to thrombin zymogens.A, rapid kinetics of FPR binding to the zymogens prothrombin (closed circles) and prethrombin-2 (open circles), showing a saturable relaxation associated with the interaction. The lack of information on a fast relaxation increasing linearly with [FPR] prevented assignment of the value of kon in the original report ([30]). Curves were drawn with the empirical expression [α(0)xm+α(∞)x]/(xm+x) , where x =[FPR], with best-fit parameters listed in Table 2. B, fractional saturation of FPR binding to prothrombin (closed circles) and prethrombin-2 (open circles). These values, together with the parameters derived from the plots in panel A, allow for derivation of the value of kon from Equation 11. […] Data in panels A and B were taken from ([30]) and were obtained under the following experimental conditions: 400 mM ChCl, 50 mM Tris, 0.1% PEG8000, pH 8, at 15 °C. CS, conformational selection; FPR, H-D-Phe-Pro-Arg-p-nitroanilide; IF, induced fit.
as §1

[5] = system: thrombin mutant S195A; experiment: Equilibrium titration of intrinsic fluorescence, FPR binding to thrombin; conditions: thrombin versus prethrombin-2
Excerpt: Figure 3 Binding of FPR to thrombin.A, rapid kinetics of FPR binding to thrombin showing the fast ( α1 ) and slow ( α2 ) relaxations defining a mechanism of binding consistent with IF or CS (see also Fig. 1A). Continuous lines depict Equations 3 and 4 in the original report ([30]) with best-fit parameter values of Equation 1 or Equation 2 listed in Table 2. […] The discontinuous line for the slow relaxation was drawn with the empirical expression [α(0)xm+α(∞)x]/(xm+x) , where x = [FPR], with best-fit parameters listed in Table 2. The discontinuous line for the fast relaxation was drawn using Equation 3 with the four independent rate constants obtained from application of Equation 11 (Table 2). […] The four independent rate constants derived from application of the method compare well with the values determined from application of Equations 3 and 4 in the original report ([30]). […]
The value of Kd,app is obtained from titration of intrinsic fluorescence at equilibrium (Figs. 2B and 3B) according to the expression(13) F(x)=F0Kd,app+F1x/Kd,app+x=F0(1−ϑ)+F1ϑ where ϑ=x/(Kd,app+x) is the fractional saturation (Figs. 1C, 2B and 3B). […] At each value of the ligand concentration, the change in absorbance from the initial ( t=0 ) to final ( t=∞ ) state gives the equilibrium reading equivalent to F(x) in Equation 13.

[6] = target: thrombin mutant S195A; parameters: method as in PMID 29511224; conditions: fluorescence titration at equilibrium; 400 mM ChCl, 50 mM Tris, 0.1% PEG8000, pH 8, 15 °C; read-out: Kd,app; cited from earlier work
[7] = system: prothrombin; experiment: Rapid kinetics (stopped-flow) of FPR binding to prothrombin; conditions: model independent, fit of data from ref 30
Excerpt: as §2
The method also offers a simple test of whether the experimental data under consideration require more complex binding mechanisms than IF or CS. This is an important property of the method that may prompt reconsideration of current interpretations of ligand binding in terms of IF or CS made from analysis of a single saturable relaxation. The denominator of Equation 11 introduces a constraint on the relative values of Kd,app and xm . If the resulting term is negative, the model independent parameters (Equations (5), (6), (7) and 10) of the slow relaxation cannot be interpreted in terms of IF or CS. The data describing the kinetic relaxation (Fig. 1, A and B) and equilibrium binding (Fig. 1C) become incompatible when interpreted with Equations 9 and 10 and more elaborate mechanisms should be considered. We illustrate this point for the case of FPR binding to prothrombin, which is the physiological zymogen precursor of thrombin ([23]). Prothrombin is composed of a protease domain identical to prethrombin-2 linked to additional kringles and Gla domains that are shed during activation to thrombin by prothrombinase in the penultimate step of the coagulation cascade ([23], [31]). Because prothrombin and prethrombin-2 share the same protease domain, binding of FPR may be expected to take place with a similar affinity and mechanism in the two zymogens. […]
as §1, with “The methodology used to produce the recombinant proteins, measure FPR binding by stopped-flow or equilibrium titrations is reported in ([30]) and references therein.” left out

[8] = system: thrombin mutant S195A; parameters: method as in PMID 29511224; conditions: cited from earlier work
[9] = system: thrombin; parameters: method as in PMID 23467412; conditions: thrombin versus zymogen prethrombin-2; cited from earlier work
[10] = model independent, derived from Equation 11
[11] = model independent, 400 mM ChCl, 50 mM Tris, 0.1% PEG8000, pH 8, 15 °C, fit of data from ref 30
[12] = model independent, pH 8, 15 °C, fit of data from ref 30
[13] = IF, conversion formulas of Table 1
[14] = CS, from analysis of two relaxations

## N=C(N)NCCC[C@H](NC(=O)[C@@H]1CCCN1C(=O)[C@H](N)Cc1ccccc1)C(=O)Nc1ccc([N+](=O)[O-])cc1 [FPR, H-D-Phe-Pro-Arg-p-nitroanilide]
[1]; CS, from Equation 9
  αˆ(0)=k12+k21: 19 ± 2 s⁻¹
[1]; CS, method of this paper
  k12: 17 ± 2 s⁻¹
  k21: 2.0 ± 0.2 s⁻¹
  koffCS: 0.60 ± 0.06 s⁻¹
[1]; CS, method of this paper (Equation 11)
  konCS: 2.4e+06 ± 200000 M⁻¹ s⁻¹
[1]; IF, method of this paper
  k23: 13 ± 1 (13 ± 1) s^−1
  k32: 4.4 ± 0.4 s⁻¹
  koffIF: 2.6 ± 0.3 s⁻¹
  konIF: 2.4e+06 ± 200000 M⁻¹ s⁻¹
[1]; [10]
  kon: 2.4e+06 ± 200000 M⁻¹ s⁻¹
[1]; [11]
  α(0), lower asymptote of slow relaxation: 0.60 ± 0.06 s⁻¹
  α(∞), asymptote of slow relaxation: 17 ± 2 s⁻¹
[1]; [12]
  xm, midpoint of the slow relaxation: 4.3 ± 0.4 µM
  α(xm), slow relaxation at midpoint: 8.8 ± 0.9 s⁻¹
[2]
  Kd: 195 ± 20 µM
[3]
  Kd: 37 ± 4 µM
[4]; CS, from Equation 9
  αˆ(0)=k12+k21: 890 ± 90 s⁻¹
[4]; CS, method of this paper
  k12: 150 ± 20 s⁻¹ and 150 ± 10 s⁻¹
  k21: 740 ± 70 s⁻¹
  koffCS: 25 ± 3 s⁻¹
  konCS: 4e+06 ± 400000 M⁻¹ s⁻¹
[4]; CS, prethrombin-2 versus thrombin
  koff higher for prethrombin-2 than for thrombin: 40 fold
[4]; [13]
  k23: 120 ± 10 s⁻¹
  k32: 29 ± 3 s⁻¹
  koffIF: 765 ± 80 s⁻¹
  konIF: 4e+06 ± 400000 M⁻¹ s⁻¹
[4]; [10]
  kon: 4e+06 ± 400000 M⁻¹ s⁻¹
[4]; [11]
  α(0), lower asymptote of slow relaxation: 25 ± 0.3 s⁻¹ and 25 ± 2 s⁻¹
[4]; [12]
  xm, midpoint of the slow relaxation: 200 ± 20 µM
  α(xm), slow relaxation at midpoint: 88 ± 9 s⁻¹
  α(∞), asymptote of slow relaxation: 150 ± 20 s⁻¹ and 150 ± 10 s⁻¹
[5]
  difference in equilibrium binding affinity between prethrombin-2 and thrombin: > 100 fold
[6]
  Kd: 0.28 ± 0.02 µM
[7]; 400 mM ChCl, 50 mM Tris, 0.1% PEG8000, pH 8, 15 °C
  α(0), asymptote of slow relaxation: 45 ± 4 s⁻¹ and 45 ± 5 s⁻¹
[7]; pH 8, 15 °C
  xm, midpoint of the slow relaxation: 54 ± 5 µM
  α(xm), slow relaxation at midpoint: 26 ± 3 s⁻¹
  α(∞), asymptote of slow relaxation: 6.9 ± 0.7 s⁻¹
[8]; [14]
  k12: 16 ± 1 s⁻¹
  k21: 3.8 ± 0.8 s⁻¹
  koffCS: 0.6 ± 0.1 s⁻¹
  konCS: 2.6e+06 ± 300000 M⁻¹ s⁻¹
[8]; IF
  k23: 13 ± 1 (13 ± 1) s^−1
  k32: 2.6 ± 0.3 s⁻¹
  koffIF: 4.4 ± 0.4 s⁻¹
  konIF: 2.6e+06 ± 300000 M⁻¹ s⁻¹

## CC1CNc2c(cccc2S(=O)(=O)N[C@@H](CCCNC(=N)N)C(=O)N2CC[C@@H](C)C[C@@H]2C(=O)O)C1 (stereo partly shown) [argatroban]
[9]
  affinity for thrombin higher than for prethrombin-2: 200 fold
